Data set [1] addresses T1, NR4A1 (Homo sapiens, UniProt P22736).
T1 construct: NR-V04 effectively promoted the degradation of NR4A1 in two human melanoma cell lines within 16 h; endogenous in cells; host or cells: CHL-1, A375, WM164, M229 human melanoma cells
As to the kind of experiment: NR4A1 degradation in A375 human melanoma cells (immunoblotting). Type of data set: cell-based. To be noted: 16 h treatment, read-out: 50% degradation concentration (DC50) of NR4A1. On the procedure:
(§1) Human melanoma cell lines: A375 and CHL-1 (gifts from Dr. D. Zhou, the University of Texas Health Science Center, San Antonio, TX, USA) were cultured in Dulbecco’s Modified Eagles’ Medium (DMEM, D5796; Sigma-Aldrich), WM164 and M229 (gifts from Dr. K.S.M. Smalley’s lab) were cultured in RPMI-1640 (R8758; Sigma-Aldrich). Mouse melanoma cell lines: B16F10 (CRL-6475, ATCC) was cultured in DMEM, SW1 and SM1 (gift from Dr. K.S.M. Smalley, Moffitt Cancer Center, Tampa, FL, USA) were cultured in RPMI. Human epithelial kidney cell lines: HEK293T (293T, CRL-3216; ATCC) and Vhl-KO-293T (gift from Dr. D. Zhou, the University of Texas Health Science Center, San Antonio, TX, USA) were cultured in DMEM. Mouse colon cancer cell lines: MC38 (ENH204-FP; Kerafast Inc.) was cultured in DMEM supplemented with 1 mM glutamine, […] non-essential amino acids (11140050; Thermo Fisher Scientific), 1 mM sodium pyruvate (11360070; Thermo Fisher Scientific), and 10 mM HEPES (15630080; Thermo Fisher Scientific). […]
(§2) Samples were lysed using radioimmunoprecipitation assay buffer (RIPA) lysis buffer (150 mM NaCl, 5 mM EDTA, 50 mM Tris pH 8.0, 0.5% sodium deoxycholate, 1% NP-40, 0.1% SDS) supplemented with 1 mM dithiothreitol and protease inhibitors. The lysates were separated by SDS-PAGE and analyzed using standard western blotting procedures ([Khan et al., 2019]). […]

Data set [2] has as its target T1, NR4A1. Briefly: NR4A1 degradation in WM164 and M229 human melanoma cells (immunoblotting). To be noted: 16 h. Type of data set: cell-based. On the procedure:
as §1, §2

The test system of data set [3] is MC38 tumors. Briefly: MC38 colon cancer syngeneic tumor model. The data set is classed as in vivo, mouse. The source says: (§3) 7–9-wk-old C57BL/6J, B6.129S2-Ighm^tm1Cgn/J (002288), B6.129S2-Nr4a1^tm1Jmi/J (NR4A1^−/−, 006187), and NOD-SCID interleukin-2 receptor gamma null (NSG) mice were purchased from Jackson Laboratories. For all studies involving NR-V04 and celastrol, the compounds were formulated in 50% phosal PG, 45% miglyol 810N, and 5% polysorbate 80 and administered via i.p. injection.
(§4) For syngeneic tumor models, 5 × 10^5 cells MC38, Yumm1.7, and Yummer1.7, 1 × 10^5 cells of B16F10 were resuspended in PBS and implanted into 7–9-wk-old mice subcutaneously. For the tumor inhibition experiment, mice were treated with 1.8 mg/kg NR-V04 or 0.75 mg/kg celastrol by i.p. injection twice weekly. For the immune profile experiment, once tumors reached 0.5 cm in diameter, mice were treated with 1.8 mg/kg NR-V04 by i.p. injection twice weekly. For the toxicity experiment, male and female non-tumor-bearing mice were treated with 2 mg/kg NR-V04 for two doses in the first week and 5 mg/kg for another two doses in the second week. Blood samples were taken from the submandibular (facial) vein before each treatment and 42 days later for hematological analysis, and body weight was measured twice per week up to day 42. Mice were euthanized in accordance with the IACUC protocol once the largest tumors reached 2 cm in diameter, and tissues were collected for further analysis.

Data set [4] has as its system Yumm1.7 tumors. Briefly: Yumm1.7 melanoma syngeneic tumor model. Type of data set: in vivo, mouse. To be noted: Yumm1.7 (low immunogenicity), 1.8 mg/kg.
From the text: as §3, §4

Data set [5] in a line: Toxicity testing in non-tumor-bearing mice. The data set is classed as in vivo, C57BL/6J mice. On the procedure: as §4
Mouse blood was prepared in microcentrifuge tubes containing PBS with 10 mM EDTA. Blood indices were analyzed using an automated hematology analyzer (Element HT5; Heska).
For H&E staining, mouse tissues were fixed in 10% formalin (SF98-4; Thermo Fisher Scientific) processed in the University of Florida Molecular Pathology Core. H&E staining was conducted using standard procedures. The sections were hydrated through xylene and a series of ethanol, followed by staining with H&E on slides.

T1 sequence (P22736 whole entry): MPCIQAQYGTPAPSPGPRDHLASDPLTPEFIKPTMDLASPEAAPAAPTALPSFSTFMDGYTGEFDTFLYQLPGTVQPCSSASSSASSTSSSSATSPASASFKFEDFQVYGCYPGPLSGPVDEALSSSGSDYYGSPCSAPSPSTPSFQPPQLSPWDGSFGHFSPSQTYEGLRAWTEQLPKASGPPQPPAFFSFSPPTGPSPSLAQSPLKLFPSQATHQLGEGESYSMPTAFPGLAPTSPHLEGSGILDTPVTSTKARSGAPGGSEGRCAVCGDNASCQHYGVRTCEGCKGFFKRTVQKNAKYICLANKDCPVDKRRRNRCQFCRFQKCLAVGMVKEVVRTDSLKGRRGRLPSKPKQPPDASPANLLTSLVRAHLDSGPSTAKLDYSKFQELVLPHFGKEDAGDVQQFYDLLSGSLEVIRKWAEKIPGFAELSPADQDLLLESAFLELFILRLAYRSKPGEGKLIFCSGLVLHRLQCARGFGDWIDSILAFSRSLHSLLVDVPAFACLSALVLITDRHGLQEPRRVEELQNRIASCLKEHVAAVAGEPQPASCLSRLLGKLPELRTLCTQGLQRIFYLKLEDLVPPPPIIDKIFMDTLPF

For `CC1=C(O)C(=O)C=C2C1=CC=C1[C@@]2(C)CC[C@@]2(C)[C@@H]3C[C@](C)(C(=O)NCCOCCOCCOCCOCC(=O)N[C@H](C(=O)N4C[C@H](O)C[C@H]4C(=O)N[C@@H](C)c4ccc(-c5scnc5C)cc4)C(C)(C)C)CC[C@]3(C)CC[C@]12C` [NR-V04], the DC50 in data set [1] came to 0.519 µM. Besides, the NR4A1 protein level entry in data set [2] (M229 human melanoma cells) and in data set [2] (WM164 human melanoma cells) was “reduced NR4A1 protein level” throughout. The tumor growth result is on record as “failed to inhibit tumor growth” in data set [3] (MC38 in NSG mice, 1.8 mg/kg i.p.); “effectively inhibited tumor growth” in data set [3] (MC38 in WT mice, 1.8 mg/kg NR-V04 or 0.75 mg/kg celastrol i.p. twice a week from day 7); “no tumor inhibitory effect” in data set [4]. Moreover, the “CD8^+ Texh cells in vivo” value in data set [3] (MC38 tumors) is listed as “did not observe a significant decrease in CD8^+ Texh cells”. Further, in data set [5] (male and female mice, day 42), the “histology (H&E) of kidney, liver and small intestine” value is on record as “did not induce tissue damage”. The body weight result in data set [5] (male and female mice, two doses of 2 mg/kg and two doses of 5 mg/kg over 2 wk, 42 days) is “no significant change in body weight”. In addition, the “hematological parameters (complete blood counts)” value in data set [5] (two doses of 2 mg/kg and two doses of 5 mg/kg, day 0, 7, 14, 42) is “no significant changes in hematological parameters”.
